Measurements published in ChEMBL document CHEMBL3885881, “DrugMatrix”.

Species: Rattus norvegicus
Test: DrugMatrix - Regimen: Daily Repeat
Assay type: toxicity, organism-based, Sprague-Dawley
Parameters: regimen Daily Repeat, gender Male, age 6-8 weeks
Details: in vivo, po, 739 mg/kg, route oral GAVAGE, dose level High, vehicle 100 % WATER; for ABSOLUTE BASOPHIL / ABSOLUTE EOSINOPHIL / ABSOLUTE LYMPHOCYTE / ABSOLUTE MONOCYTE / ABSOLUTE SEGMENTED NEUTROPHIL / BASOPHIL / EOSINOPHIL / ERYTHROCYTE COUNT / HEMATOCRIT / HEMOGLOBIN / LEUKOCYTE COUNT / LYMPHOCYTE / MEAN CORPUSCULAR HEMOGLOBIN / MEAN CORPUSCULAR HEMOGLOBIN CONCENTRATION / MEAN CORPUSCULAR VOLUME / MONOCYTE / NEUTROPHIL / NUCLEATED RED BLOOD CELLS / PLATELET COUNT: tissue Blood; for ALANINE AMINOTRANSFERASE / ALBUMIN / ALKALINE PHOSPHATASE / ASPARTATE AMINOTRANSFERASE / BLOOD UREA NITROGEN / CARBON DIOXIDE / CHLORIDE / CHOLESTEROL / CREATINE PHOSPHOKINASE / CREATININE / GLUCOSE / LACTATE DEHYDROGENASE / LIPASE / PHOSPHORUS / POTASSIUM / SODIUM / TOTAL BILIRUBIN / TOTAL PROTEIN / URIC ACID: tissue Plasma

## C[C@H]1COc2c(N3CCN(C)CC3)c(F)cc3c(=O)c(C(=O)O)cn1c23.C[C@H]1COc2c(N3CCN(C)CC3)c(F)cc3c(=O)c(C(=O)O)cn1c23.O [LEVOFLOXACIN]
72 h, time 3 day
  ABSOLUTE BASOPHIL: 0 CELLS/uL
  ABSOLUTE EOSINOPHIL: 60.67 CELLS/uL
  ABSOLUTE LYMPHOCYTE: 15481 CELLS/uL
  ABSOLUTE MONOCYTE: 289.33 CELLS/uL
  ABSOLUTE SEGMENTED NEUTROPHIL: 1169 CELLS/uL
  BASOPHIL: 0%
  EOSINOPHIL: 0.33%
  ERYTHROCYTE COUNT: 5.52 x10E6/uL
  HEMATOCRIT: 35.23%
  HEMOGLOBIN: 13.27 G/DL
  LEUKOCYTE COUNT: 17 x10E3/uL
  LYMPHOCYTE: 91%
  MEAN CORPUSCULAR HEMOGLOBIN: 24.03 pg
  MEAN CORPUSCULAR HEMOGLOBIN CONCENTRATION: 37.67 G/DL
  MEAN CORPUSCULAR VOLUME: 63.8 fL
  MONOCYTE: 1.67%
  NEUTROPHIL: 7%
  NUCLEATED RED BLOOD CELLS: 0 /100WBC
  PLATELET COUNT: 1423.67 x10E3/uL
  ALANINE AMINOTRANSFERASE: 46.33 u/L
  ALBUMIN: 4.1 G/DL
  ALKALINE PHOSPHATASE: 308 u/L
  ASPARTATE AMINOTRANSFERASE: 72.67 u/L
  BLOOD UREA NITROGEN: 16.33 mg/dL
  CARBON DIOXIDE: 26.67 mmol/L
  CHLORIDE: 104.33 MEQ/L
  CHOLESTEROL: 82.33 mg/dL
  CREATINE PHOSPHOKINASE: 201.67 u/L
  CREATININE: 0.14 mg/dL
  GLUCOSE: 154.33 mg/dL
  LACTATE DEHYDROGENASE: 124 u/L
  LIPASE: 8.67 u/L
  PHOSPHORUS: 11.47 mg/dL
  POTASSIUM: 6.3 MEQ/L
  SODIUM: 146.37 MEQ/L
  TOTAL BILIRUBIN: 0.17 mg/dL
  TOTAL PROTEIN: 5.97 G/DL
  URIC ACID: 1.7 mg/dL
120 h, time 5 day
  ABSOLUTE BASOPHIL: 0 CELLS/uL
  ABSOLUTE EOSINOPHIL: 0 CELLS/uL
  ABSOLUTE LYMPHOCYTE: 15118 CELLS/uL
  ABSOLUTE MONOCYTE: 376 CELLS/uL
  ABSOLUTE SEGMENTED NEUTROPHIL: 706 CELLS/uL
  BASOPHIL: 0%
  EOSINOPHIL: 0%
  ERYTHROCYTE COUNT: 6.32 x10E6/uL
  HEMATOCRIT: 38.53%
  HEMOGLOBIN: 14.33 G/DL
  LEUKOCYTE COUNT: 16.2 x10E3/uL
  LYMPHOCYTE: 93.33%
  MEAN CORPUSCULAR HEMOGLOBIN: 22.7 pg
  MEAN CORPUSCULAR HEMOGLOBIN CONCENTRATION: 37.2 G/DL
  MEAN CORPUSCULAR VOLUME: 61.03 fL
  MONOCYTE: 2.33%
  NEUTROPHIL: 4.33%
  NUCLEATED RED BLOOD CELLS: 0.33 /100WBC
  PLATELET COUNT: 1446 x10E3/uL
  ALANINE AMINOTRANSFERASE: 51.67 u/L
  ALBUMIN: 4.27 G/DL
  ALKALINE PHOSPHATASE: 400 u/L
  ASPARTATE AMINOTRANSFERASE: 69.33 u/L
  BLOOD UREA NITROGEN: 16.33 mg/dL
  CARBON DIOXIDE: 25.67 mmol/L
  CHLORIDE: 105.33 MEQ/L
  CHOLESTEROL: 69.67 mg/dL
  CREATINE PHOSPHOKINASE: 212 u/L
  CREATININE: 0.19 mg/dL
  GLUCOSE: 191.33 mg/dL
  LACTATE DEHYDROGENASE: 130.33 u/L
  LIPASE: 9 u/L
  PHOSPHORUS: 14.27 mg/dL
  POTASSIUM: 6.6 MEQ/L
  SODIUM: 147.87 MEQ/L
  TOTAL BILIRUBIN: 0.17 mg/dL
  TOTAL PROTEIN: 6.23 G/DL
  URIC ACID: 2.37 mg/dL
